In data set [1] the test system is Mus musculus. As to the kind of experiment: Analgesic activity in po dosed mouse assessed as inhibition of acetic acid-induced writhing administered 30 mins prior to acetic acid challenge measured after 5 mins for 20 mins. The format is functional.
Data set [2] has as its system Rattus norvegicus. As to the kind of experiment: Analgesic activity in Sprague-Dawley rat assessed as increase in pain threshold at 60 mg/kg, po after 15 to 90 mins by tail flick test. It counts as functional. On the technique in general: Hot-plate and tail-flick tests time the reaction to a heat stimulus.
The test system of data set [3] is Mus musculus. As to the kind of experiment: Antianxiety activity in albino BALB/cJ mouse assessed as reduction in footshock-induced fighting behavior at 5 mg/kg, po after 30 to 90 mins. The format is functional. The arrangement: scale not given: the % may be the effect or the level left.
Data set [4] deals with Rattus norvegicus. The data set is described as follows: Antianxiety activity in Long-Evans rat assessed as reduction in motor activity at 5 mg/kg, po after 2 hrs relative to vehicle-treated control. The arrangement: scale not given: the % may be the effect or the level left. The format is functional.
The test system of data set [5] is Rattus norvegicus. As to the kind of experiment: Antianxiety activity in Long-Evans rat assessed as reduction in motor activity at 40 mg/kg, po after 2 hrs relative to vehicle-treated control. The format is functional. Details: scale not given: the % may be the effect or the level left.
Another data set has as its system Rhesus monkey. The data set is described as follows: Antianxiety activity in po dosed rhesus monkey assessed as antiagressive behavior measured every hour post dosing. It counts as functional. Particulars: Macaca mulatta, read-out: MED.
In data set [6] the test system is Mus musculus. The data set is described as follows: Increase in footshock-induced fighting behavior in albino BALB/cJ mouse at 10 mg/kg, po after 30 to 90 mins. It counts as functional.
The species named for data set [7] is Rattus norvegicus. As to the kind of experiment: animal or person. The following applies: Charles River, route oral. The format is functional.
Description: Antidiarrheal activity in Charles River rat assessed as inhibition of castor oil-induced diarrhea by measuring protected animals at 0.5 mg/kg, po administered 1 hr prior to castor oil challenge measured after 1 hr relative to vehicle-treated control
A short description of data set [8]: Acute toxicity in po dosed mouse. It counts as organism-based. Particulars: in vivo.
Data set [9] relates to Mus musculus. The data set is described as follows: Analgesic activity in mouse assessed as inhibition of acetic acid-induced writhing at 16 mg/kg, po administered 30 mins prior to acetic acid challenge measured after 5 mins for 20 mins. The format is functional.
The subject of data set [10] is Rattus norvegicus. The data set is described as follows: Antipsychotic activity in rat assessed as reduction of methamphetamine-induced hyperactivity at 5 mg/kg, po administered prior to methamphetamine challenge relative to vehicle-treated control. It counts as functional. Details: scale not given: the % may be the effect or the level left.
In data set [11] the test system is Mus musculus. As to the kind of experiment: Antidepressant activity in po dosed mouse assessed as potentiation of DOPA-induced effect administered 4 hrs prior to DOPA challenge. It counts as functional. Particulars: read-out: MED.
For data set [12], the system named is Rattus norvegicus. As to the kind of experiment: Antihypertensive activity in spontaneously hypertensive rat model assessed as reduction in blood pressure at 3 mg/kg, po after 3 hrs. The format is functional. Details: scale not given: the % may be the effect or the level left.
Data set [13] has as its system Rattus norvegicus. As to the kind of experiment: Antihypertensive activity in spontaneously hypertensive rat model assessed as reduction in blood pressure at 3 mg/kg, po after 24 hrs. The arrangement: scale not given: the % may be the effect or the level left. The format is functional.
Data set [14] relates to Rattus norvegicus. As to the kind of experiment: Antihypertensive activity in spontaneously hypertensive rat model assessed as reduction in blood pressure at 1 mg/kg, po after 3 hrs. Details: scale not given: the % may be the effect or the level left. The format is functional.
Data set [15] relates to Rattus norvegicus. The data set is described as follows: Antihypertensive activity in spontaneously hypertensive rat model assessed as reduction in blood pressure at 1 mg/kg, po after 24 hrs. The format is functional. The arrangement: scale not given: the % may be the effect or the level left.
For data set [16], the system named is Rattus norvegicus. As to the kind of experiment: Analgesic activity in Sprague-Dawley rat assessed as increase in pain threshold at 10 mg/kg, po after 15 to 90 mins by tail flick test. The format is functional.
The subject of data set [17] is Rattus norvegicus. The data set is described as follows: Antianxiety activity in Long-Evans rat assessed as reduction in motor activity at 2 mg/kg, po after 2 hrs relative to vehicle-treated control. It counts as functional. Details: scale not given: the % may be the effect or the level left.

Structures are written as SMILES. Some results are limits rather than exact numbers.

In the case of `CN1C(=O)CN=C(c2ccccc2)c2cc(Cl)ccc21` [DIAZEPAM], the ED50 – broadly, the dose that gives a 50% effect, or the effect in half of the subjects – with Mus musculus [1] is 4 mg/kg. Also, the Activity was 64% with Rattus norvegicus [2], 95% in the data set on Mus musculus [3], 15% with Rattus norvegicus [4] and 60% in the data set on Rattus norvegicus [5]. Besides, in the data set with Rhesus monkey, the minimal effective dose was 1 mg/kg.

As for `C#CCN1CCC2=C(C1)c1c(O)cc(C(C)CCCc3ccc(C)cc3)cc1OC2(C)C` (stereo not given), the Activity with Mus musculus [6] is recorded as 17%; with Rattus norvegicus [4], 24%; with Rattus norvegicus [10], 46%. In the data set filed under Rattus norvegicus [7], the inhibition in vivo (in general, how much of the control response was suppressed) at 0.5 mg/kg worked out at 0%. For the same compound, the median lethal dose (LD50) (in general, the dose expected to kill half of the subjects tested) in data set [8] is not below 1000 mg/kg. Also, the inhibition in vivo at 16 mg/kg in the data set with Mus musculus [9] turned out to be 32%.

`CC1CCC2=C(C1)c1c(O)cc(C(C)C(C)CCc3ccncc3)cc1OC2(C)C` (stereo not given) showed an inhibition in vivo at 0.5 mg/kg in the data set listed under Rattus norvegicus [7] of 90%. Also, in data set [8], the LD50 was not below 1000 mg/kg. Further, the minimal effective dose with Mus musculus [11] came to 20 mg/kg. The Activity is 19% in the data set with Rattus norvegicus [12]; 7% with Rattus norvegicus [13]; 13% in the data set on Rattus norvegicus [14]; 15% with Rattus norvegicus [15]; 58% in the data set on Rattus norvegicus [16]; 0% in the data set on Mus musculus [3]. For the same compound, the Activity in the data set on Rattus norvegicus [4] is given as 42%; in the data set with Rattus norvegicus [17] it was 28%; with Rattus norvegicus [10] it was 13%. Moreover, the ED50 with Mus musculus [1] came to 4.7 mg/kg.
